“Also recorded” adds a separate entry of the source.

Results on 3 molecules are retold here after patent US20230138178A1, “Methods and Compositions for Producing a Heterologous Antiviral Compound in a Host Cell” (priority 2019, published 2023).

Data set [1] deals with TLR-mediated NFkB activation. Description: TLR-mediated NFkB activation, RAW264.7 NFkB reporter cells. It is filed as cell-based. Particulars: for TLR-mediated NFkB activation: RAW264.7 NFkB reporter, pre-treated overnight, 500 ng/mL LPS, 1 μg/mL PAM, or 1 μg/mL R848.
A further data set concerns HSV-1. It is filed as cell-based, Herpes Simplex Virus 1. Particulars: mouse macrophages/BMDMs pre-treated with 1 mM ddhC; MOI 1 or 10; 24 hours; flow cytometry; preliminary.
A further data set relates to Vaccinia virus. It counts as cell-based.
The next data set deals with LCMV. It counts as cell-based, lymphocytic choriomeningitis virus. Particulars: BMDMs pre-treated with 1 mM ddhC; MOI 1 or 10; 24 hours; qPCR; preliminary.
The next data set concerns M. tuberculosis. Description: M. tuberculosis growth in ddhC-stimulated macrophages. It counts as cell-based, Mycobacterium tuberculosis. To be noted: ddhC-stimulated macrophages vs Vehicle or Cytidine; preliminary.
In data set [2] the test system is TLR-mediated Type 1 interferon signaling. Put plainly: TLR-mediated Type 1 interferon signaling in macrophages. It is filed as cell-based.
The next data set has as its system flavivirus. Particulars: endogenously produced and exogenously administered; Gizzi et al., 2018; cited from earlier work.
The next data set has as its system host cell physiology. Particulars: cited from earlier work.
The next data set has as its system Viperin expression. Description: Viperin expression in Poly(I:C)-stimulated BMDMs (qPCR). To be noted: 1 mM ddhC co-stimulated with 25 ug/mL Poly(I:C).
The next data set relates to ZIKV. To be noted: previous study; cited from earlier work.
The subject of a further data set is HCV. Particulars: previous study; cited from earlier work.
The next data set deals with WNV. To be noted: previous study; cited from earlier work.
The next data set concerns DV. To be noted: previous study; cited from earlier work.

As for `Nc1nc2c(ncn2[C@@H]2OC(CO)=C[C@H]2O)c(=O)[nH]1` [ddhG], the “TLR-mediated NFkB activation” value in data set [1] is listed as “agonize”.

For the molecule `Nc1ccn([C@@H]2OC(CO)=C[C@H]2O)c(=O)n1` [ddhC], the “HSV-1 replication / infectivity” value with HSV-1 was “increases replication; also recorded: increasing”. The Vaccinia virus infection result in the data set with Vaccinia virus is reported as “negligible effects”. The LCMV replication entry in the data set with LCMV is on record as “suppresses replication”. Further, the “M. tuberculosis growth restriction” value with M. tuberculosis is recorded as “lead to restriction; also recorded: restrict M. tuberculosis growth greater than those treated with Vehicle or Cytidine”. The “TLR-mediated NFkB activation” value in data set [1] is reported as “agonize”. Also, the “TLR-mediated NFkB signaling in macrophages” value in [1] (macrophages, preliminary data) is listed as “modulates”. Besides, the “TLR-mediated Type 1 interferon signaling” value in data set [2] (macrophages, preliminary data) is listed as “modulates”. The flavivirus infection restriction result in the data set with flavivirus was “restricts”. Besides, the “toxicity to the host” value in the data set with host cell physiology was “minimal evidence of toxicity”. The “Poly(I:C)-induced Viperin upregulation” value in the data set on Viperin expression is listed as “dampened”.

In the case of `Nc1ccn([C@@H]2OC(COP(=O)(O)OP(=O)(O)OP(=O)(O)O)=C[C@H]2O)c(=O)n1` [ddhCTP, 3′-deoxy-3′, 4′-didehydro-CTP], the “HSV-1 replication / infectivity” value with HSV-1 is given as “increases”. Further, the “TLR4-mediated Type 1 interferon induction” value in data set [2] (preliminary results) is “suppresses”. Moreover, in the data set on ZIKV, the “suppression of ZIKV” value is “can suppress”. Moreover, the “suppression of HCV” value in the data set with HCV was “can suppress”. In the data set on WNV, the “suppression of WNV” value is on record as “can suppress”. In the data set with DV, the “suppression of DV” value is “can suppress”. Also, in the data set on flavivirus, the flavivirus infection restriction entry is “restricts”. Besides, in the data set on host cell physiology, the “cytotoxic effects on host cell physiology” value is recorded as “no cytotoxic effects” and the “toxicity to the host” value is listed as “minimal evidence of toxicity”.
